Where two headings read alike, the source gives them in different places. Peptide text beside a SMILES is read from it.
Assays:
GABAA α1β3γ2s (α1) = molecular target: T1, GABAA α1β3γ2s (α1) (Homo sapiens, UniProt P14867+P18507+P28472); type: cell-based; conditions: CHO cells, membrane potential dye
T1 construct: expressed in transfected cells; host or cells: CHO
Experimental: (§1) Cells were plated 24 hours prior to assay at 10-25,000 cells per well in 384 well plates in growth media (Ham's F-12 media plus FBS and glutamine). […] Incubation was for 1 hour, followed by plate loading onto the high throughput fluorescent plate reader (Hamamastu FDSS). […] The plates were read for 90 seconds.
(§2) Interaction of cell lines with test compounds was evaluated by measuring the membrane potential of GABAA, in response to test compounds using the following protocol.

GABAA α3β3γ2s (α3) = molecular target: T2, GABAA α3β3γ2s (α3) (Homo sapiens, UniProt P18507+P28472+P34903); type: cell-based; conditions: CHO cells, membrane potential dye
T2 construct: expressed in transfected cells; host or cells: CHO
T2 sequence (P34903 29-492): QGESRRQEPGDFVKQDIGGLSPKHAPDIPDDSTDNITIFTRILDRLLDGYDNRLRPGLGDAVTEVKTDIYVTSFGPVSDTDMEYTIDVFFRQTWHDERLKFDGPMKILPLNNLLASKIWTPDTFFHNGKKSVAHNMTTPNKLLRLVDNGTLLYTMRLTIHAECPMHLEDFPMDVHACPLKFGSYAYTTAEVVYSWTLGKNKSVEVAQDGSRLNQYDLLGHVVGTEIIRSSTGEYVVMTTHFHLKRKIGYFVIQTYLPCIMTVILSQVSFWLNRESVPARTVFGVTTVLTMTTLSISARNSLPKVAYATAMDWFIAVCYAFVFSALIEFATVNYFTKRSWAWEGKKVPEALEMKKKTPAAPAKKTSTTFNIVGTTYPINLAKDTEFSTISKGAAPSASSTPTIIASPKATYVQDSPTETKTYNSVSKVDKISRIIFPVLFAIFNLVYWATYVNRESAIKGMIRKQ
T2 sequence (P28472 26-473): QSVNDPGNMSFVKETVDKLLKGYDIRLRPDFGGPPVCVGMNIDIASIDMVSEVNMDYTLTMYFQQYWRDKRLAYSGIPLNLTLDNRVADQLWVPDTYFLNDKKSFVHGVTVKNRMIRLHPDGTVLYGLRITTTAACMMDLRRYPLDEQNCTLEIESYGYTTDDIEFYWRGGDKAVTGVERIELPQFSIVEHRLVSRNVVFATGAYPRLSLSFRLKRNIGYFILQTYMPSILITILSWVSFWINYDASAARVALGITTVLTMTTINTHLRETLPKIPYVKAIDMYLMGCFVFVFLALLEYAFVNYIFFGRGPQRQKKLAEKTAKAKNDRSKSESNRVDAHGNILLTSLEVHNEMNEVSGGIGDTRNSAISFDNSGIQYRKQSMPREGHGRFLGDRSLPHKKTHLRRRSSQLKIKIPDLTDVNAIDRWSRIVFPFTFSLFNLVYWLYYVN
T2 sequence (P18507 40-467 isoform P18507-1 limits assumed): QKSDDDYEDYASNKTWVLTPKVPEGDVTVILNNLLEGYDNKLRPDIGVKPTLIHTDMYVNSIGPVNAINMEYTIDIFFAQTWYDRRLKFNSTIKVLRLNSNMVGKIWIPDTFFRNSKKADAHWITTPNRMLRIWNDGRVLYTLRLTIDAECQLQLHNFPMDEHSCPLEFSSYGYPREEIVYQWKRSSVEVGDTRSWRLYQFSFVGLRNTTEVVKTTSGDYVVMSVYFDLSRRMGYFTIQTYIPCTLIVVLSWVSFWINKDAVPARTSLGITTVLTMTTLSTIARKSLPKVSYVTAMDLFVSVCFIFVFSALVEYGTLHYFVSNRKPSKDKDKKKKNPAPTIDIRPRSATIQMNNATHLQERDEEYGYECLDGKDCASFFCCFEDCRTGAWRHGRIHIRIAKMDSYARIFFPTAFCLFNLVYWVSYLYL
Experimental: as §1, §2

GABAA α5β3γ2s (α5) = molecular target: T3, GABAA α5β3γ2s (α5) (Homo sapiens, UniProt P18507+P28472+P31644); type: cell-based
T3 construct: expressed in transfected cells; host or cells: CHO
T3 sequence (P31644 32-462): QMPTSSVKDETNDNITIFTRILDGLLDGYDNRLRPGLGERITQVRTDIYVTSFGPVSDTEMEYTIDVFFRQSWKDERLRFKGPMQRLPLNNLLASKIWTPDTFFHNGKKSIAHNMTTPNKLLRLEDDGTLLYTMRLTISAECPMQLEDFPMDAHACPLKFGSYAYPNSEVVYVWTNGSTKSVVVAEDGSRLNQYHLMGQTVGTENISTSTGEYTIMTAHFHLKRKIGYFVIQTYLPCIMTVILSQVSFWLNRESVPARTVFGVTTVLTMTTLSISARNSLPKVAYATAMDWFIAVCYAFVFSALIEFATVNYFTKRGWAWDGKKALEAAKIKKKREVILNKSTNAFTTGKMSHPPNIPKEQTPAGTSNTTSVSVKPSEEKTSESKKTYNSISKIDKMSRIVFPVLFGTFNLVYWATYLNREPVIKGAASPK
T3 sequence (P28472 26-473): as the sequence (P28472 26-473) above
T3 sequence (P18507 40-467 isoform P18507-1 limits assumed): as the sequence (P18507 40-467 isoform P18507-1 limits assumed) above
Experimental: as §1, §2

GABAA α2β3γ2s (α2) = molecular target: T4, GABAA α2β3γ2s (α2) (Homo sapiens, UniProt P18507+P28472+P47869, A343T); type: cell-based
T4 construct: expressed in transfected cells; host or cells: CHO
T4 sequence (P47869 29-451 A343T): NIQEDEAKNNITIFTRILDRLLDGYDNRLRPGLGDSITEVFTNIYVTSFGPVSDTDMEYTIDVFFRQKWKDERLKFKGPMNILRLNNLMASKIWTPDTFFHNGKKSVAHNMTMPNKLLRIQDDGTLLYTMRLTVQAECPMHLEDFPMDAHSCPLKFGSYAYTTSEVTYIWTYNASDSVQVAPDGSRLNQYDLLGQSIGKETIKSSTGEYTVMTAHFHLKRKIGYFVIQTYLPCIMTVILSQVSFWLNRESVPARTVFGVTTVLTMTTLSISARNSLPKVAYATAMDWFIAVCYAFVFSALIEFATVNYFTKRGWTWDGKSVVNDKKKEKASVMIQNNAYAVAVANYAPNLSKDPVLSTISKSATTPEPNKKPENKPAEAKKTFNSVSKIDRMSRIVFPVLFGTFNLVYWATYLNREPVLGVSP
T4 sequence (P28472 26-473, stated change not applied): as the sequence (P28472 26-473) above
T4 sequence (P18507 40-467 isoform P18507-1 limits assumed, stated change not applied): as the sequence (P18507 40-467 isoform P18507-1 limits assumed) above
Experimental: as §1, §2

[1] = tested on: GABAA (α1β3γ2s, α2β3γ2s, α3β3γ2s, α5β3γ2s); test: In-cell readout assay using halide-sensitive meYFP, GABAA-meYFP-CHO cells; type: cell-based, human; conditions: increasing concentrations of GABA ligand
Experimental: The response of GABAA (subunit combinations of α1β3γ2s (A1), α2β3γ2s (A2), α3β3γ2s (A3) and α5β3γ2s (A5)) expressing CHO cells of the invention to test compounds was evaluated using the following protocol for an in-cell readout assay.
Cells were plated 24 hours prior to assay at 10-25,000 cells per well in 384 well plates in growth media (Ham's F-12 media plus FBS and glutamine). […] The assay plates were then loaded on the FDSS (Hamamatsu Corporation). […] The plates were read for 90 seconds.

[2] = molecular target: T5, sweet taste receptor (human T1R2 and T1R3 subunits, mouse Gα15) (Homo sapiens, UniProt Q7RTX0+Q8TE23, C757R/I191V/I486V/R317G); test: sweet taste receptor-expressing cell-based assay (calcium flux); conditions: natural, high intensity and artificial sweeteners; FIGS. 23 and 24
T5 construct: expressed in transfected cells; host or cells: HEK293T (ATCC CRL-11268)
T5 sequence (Q8TE23 20-839 I191V/R317G/I486V): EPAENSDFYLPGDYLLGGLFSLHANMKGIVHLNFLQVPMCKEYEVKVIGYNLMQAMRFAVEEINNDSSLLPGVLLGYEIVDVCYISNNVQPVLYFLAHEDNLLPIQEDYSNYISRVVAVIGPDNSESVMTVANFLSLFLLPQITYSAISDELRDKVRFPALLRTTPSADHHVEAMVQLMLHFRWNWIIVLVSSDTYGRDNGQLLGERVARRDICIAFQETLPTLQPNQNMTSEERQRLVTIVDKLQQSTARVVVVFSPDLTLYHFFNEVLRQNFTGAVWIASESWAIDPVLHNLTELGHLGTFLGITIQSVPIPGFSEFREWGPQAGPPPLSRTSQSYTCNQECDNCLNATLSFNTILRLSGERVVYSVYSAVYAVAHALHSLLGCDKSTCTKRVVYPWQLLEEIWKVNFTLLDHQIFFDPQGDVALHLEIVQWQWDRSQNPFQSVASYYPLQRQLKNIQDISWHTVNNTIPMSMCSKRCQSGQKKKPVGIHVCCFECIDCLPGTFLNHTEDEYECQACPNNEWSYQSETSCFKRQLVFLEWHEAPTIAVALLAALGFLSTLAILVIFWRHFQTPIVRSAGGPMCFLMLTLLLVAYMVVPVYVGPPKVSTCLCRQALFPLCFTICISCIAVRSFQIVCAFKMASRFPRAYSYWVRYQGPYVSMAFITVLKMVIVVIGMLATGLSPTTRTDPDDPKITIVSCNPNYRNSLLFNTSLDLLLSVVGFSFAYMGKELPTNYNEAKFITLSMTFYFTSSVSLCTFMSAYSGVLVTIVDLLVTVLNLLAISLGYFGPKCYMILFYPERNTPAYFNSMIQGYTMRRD
T5 sequence (Q7RTX0 21-852 C757R): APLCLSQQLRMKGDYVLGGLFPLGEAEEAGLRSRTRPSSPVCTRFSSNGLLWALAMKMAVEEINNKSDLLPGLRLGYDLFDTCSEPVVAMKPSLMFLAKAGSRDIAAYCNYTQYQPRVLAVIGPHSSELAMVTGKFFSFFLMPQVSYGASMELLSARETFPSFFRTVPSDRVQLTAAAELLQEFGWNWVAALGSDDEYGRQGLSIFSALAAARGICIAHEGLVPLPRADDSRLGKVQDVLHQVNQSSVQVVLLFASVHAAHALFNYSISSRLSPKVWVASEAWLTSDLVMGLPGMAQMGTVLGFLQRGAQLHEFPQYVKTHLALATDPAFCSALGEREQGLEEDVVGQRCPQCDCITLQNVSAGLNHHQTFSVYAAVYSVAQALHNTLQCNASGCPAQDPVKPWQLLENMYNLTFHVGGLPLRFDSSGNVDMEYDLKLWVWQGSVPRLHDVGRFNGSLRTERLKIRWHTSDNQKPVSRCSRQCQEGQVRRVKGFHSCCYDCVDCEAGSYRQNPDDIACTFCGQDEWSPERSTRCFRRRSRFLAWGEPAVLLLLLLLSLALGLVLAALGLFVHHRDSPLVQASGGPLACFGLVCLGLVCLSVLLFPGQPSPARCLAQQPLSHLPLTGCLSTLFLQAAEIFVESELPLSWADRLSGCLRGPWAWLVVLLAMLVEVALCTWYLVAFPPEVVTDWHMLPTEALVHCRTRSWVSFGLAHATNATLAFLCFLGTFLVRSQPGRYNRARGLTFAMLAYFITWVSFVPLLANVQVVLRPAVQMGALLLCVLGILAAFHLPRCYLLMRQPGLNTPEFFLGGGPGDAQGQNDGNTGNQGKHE
Source text: FIG. 24 (A-C) is series of line graphs representing the data obtained in various dose response experiments using sweet taste receptor agonists in a sweet taste receptor-expressing cell-based assay (using cells of this invention). (A) The responses of a sweet taste receptor-expressing cell line to natural caloric sweeteners were plotted as a function of the agonist concentration. (B) Dose response curves of common artificial sweeteners in a sweet taste receptor-expressing cell-based assay. (C) Dose response curves of natural high-intensity sweeteners in a sweet taste receptor-expressing cell-based assay.
FIG. 25 is a series of representative response traces generated after performing a sweet taste receptor-expressing cell-based assay using cells of this invention.
To identify a taste receptor modulator (e.g., umami taste receptor modulator or sweet taste receptor modulator), one exposes a cell or cell line of the invention to a test compound under conditions in which the taste receptor (e.g., umami taste receptor or sweet taste receptor) would be expected to be functional and then detects a statistically significant change (e.g., p<0.05) in taste receptor activity (e.g., umami taste receptor activity or sweet taste receptor activity) compared to a suitable control, e.g., cells that are not exposed to the test compound. Positive and/or negative controls using known agonists or antagonists and/or cells expressing different combinations of taste receptor subunits (e.g., umami taste receptor subunits or sweet taste receptor subunits) (and optionally a G protein) may also be used. In some embodiments, the taste receptor activity (e.g., umami taste receptor activity or sweet taste receptor activity) to be detected and/or measured is calcium release from the endoplasmic reticulum as a result of the down stream signaling events following taste receptor activation (e.g., umami taste receptor activation or sweet taste receptor activation). One of ordinary skill in the art would understand that various assay parameters may be optimized, e.g., signal to noise ratio.
See, e.g., FIGS. 23 and 24.

[3] = molecular target: T6, sweet taste receptor (T1R2/T1R3) (Homo sapiens, UniProt Q7RTX0+Q8TE23, C757R/I191V/I486V/R317G); test: Sweet cell-based calcium flux assay, HEK293T cells expressing T1R2, T1R3 and mouse Gα15; conditions: FIG. 24, one assay; read-out: EC50 values (calcium flux)
T6 construct: expressed in transfected cells; host or cells: HEK293T (ATCC CRL-11268)
T6 sequence (Q8TE23 20-839 I191V/R317G/I486V): T5 sequence (Q8TE23 20-839 I191V/R317G/I486V)
T6 sequence (Q7RTX0 21-852 C757R): T5 sequence (Q7RTX0 21-852 C757R)
Source text: Plates are then loaded on a high throughput plate reader (Hamamatsu FDSS). […] Calcium flux is detected for 90 seconds.

human GC-C (human) = human GC-C (human) (UniProt P25092); test: cell-based or functional assay
Sequence of human GC-C (human) (P25092 24-1073): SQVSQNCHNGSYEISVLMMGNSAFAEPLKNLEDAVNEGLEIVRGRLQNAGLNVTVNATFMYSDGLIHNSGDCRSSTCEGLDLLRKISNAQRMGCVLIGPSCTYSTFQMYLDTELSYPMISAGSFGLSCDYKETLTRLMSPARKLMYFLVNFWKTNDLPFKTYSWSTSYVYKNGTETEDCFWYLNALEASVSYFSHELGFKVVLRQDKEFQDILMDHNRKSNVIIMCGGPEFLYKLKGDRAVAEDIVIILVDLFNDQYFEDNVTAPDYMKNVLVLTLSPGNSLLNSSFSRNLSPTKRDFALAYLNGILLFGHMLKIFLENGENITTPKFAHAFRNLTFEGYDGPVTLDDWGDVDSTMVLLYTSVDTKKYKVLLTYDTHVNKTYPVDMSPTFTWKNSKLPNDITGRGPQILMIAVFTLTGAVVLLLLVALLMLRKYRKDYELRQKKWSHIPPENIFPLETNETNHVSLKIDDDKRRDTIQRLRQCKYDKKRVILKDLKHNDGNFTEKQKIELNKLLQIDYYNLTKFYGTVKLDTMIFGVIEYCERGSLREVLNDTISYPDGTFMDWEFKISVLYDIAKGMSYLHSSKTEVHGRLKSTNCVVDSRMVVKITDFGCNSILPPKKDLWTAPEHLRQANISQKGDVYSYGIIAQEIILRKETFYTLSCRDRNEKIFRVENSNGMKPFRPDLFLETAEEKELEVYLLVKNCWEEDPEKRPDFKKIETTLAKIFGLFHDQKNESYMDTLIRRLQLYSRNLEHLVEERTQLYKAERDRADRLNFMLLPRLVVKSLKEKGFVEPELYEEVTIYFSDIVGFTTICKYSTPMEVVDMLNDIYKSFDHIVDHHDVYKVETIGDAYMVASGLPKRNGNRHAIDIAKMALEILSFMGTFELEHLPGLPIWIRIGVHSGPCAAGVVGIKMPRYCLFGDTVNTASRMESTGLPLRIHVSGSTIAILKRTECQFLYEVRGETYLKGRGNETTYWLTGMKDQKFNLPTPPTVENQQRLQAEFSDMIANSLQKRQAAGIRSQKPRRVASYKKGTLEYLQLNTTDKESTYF

[4] = CHO cells, membrane potential dye

T1 sequence (P14867 28-456): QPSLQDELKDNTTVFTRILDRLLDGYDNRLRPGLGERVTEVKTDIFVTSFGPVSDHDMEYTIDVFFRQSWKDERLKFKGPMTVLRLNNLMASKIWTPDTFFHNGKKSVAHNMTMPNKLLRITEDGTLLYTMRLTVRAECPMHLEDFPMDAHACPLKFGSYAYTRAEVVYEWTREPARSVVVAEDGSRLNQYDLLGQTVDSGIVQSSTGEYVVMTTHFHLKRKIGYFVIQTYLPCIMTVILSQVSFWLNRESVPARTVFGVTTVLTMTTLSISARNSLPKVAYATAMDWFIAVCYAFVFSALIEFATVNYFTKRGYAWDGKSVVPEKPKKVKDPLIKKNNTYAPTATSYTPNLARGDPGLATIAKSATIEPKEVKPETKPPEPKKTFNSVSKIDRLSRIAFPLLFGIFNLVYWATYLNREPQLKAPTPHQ
T1 sequence (P28472 26-473): as the sequence (P28472 26-473) above
T1 sequence (P18507 40-467 isoform P18507-1 limits assumed): as the sequence (P18507 40-467 isoform P18507-1 limits assumed) above

Compound | EC50 (GABAA α1β3γ2s (α1)) | EC50 (GABAA α3β3γ2s (α3)) | EC50 (GABAA α2β3γ2s (α2); [4]) | response of sweet taste receptor cells and cell lines to known classes of sweet compounds [2] | other results
CC12CCC(O)CC1CCC1C2CCC2(C)C(C(=O)CO)CCC12 (stereo not drawn) [3-alpha, 21-dihydroxy-5-alpha-pregnan-20-one] | 0.382 µM | 0.0802 µM | 0.123 µM |  | EC50 (GABAA α5β3γ2s (α5); [4]): 0.0173 µM
CC(=O)C1CCC2C3CCC4CC(O)CCC4(C)C3CCC12C (stereo not drawn) [5-alpha-Pregnan-3alpha-ol-20-one] | 0.692 µM | 0.08 µM |  |  | EC50 (GABAA α5β3γ2s (α5)): 0.0336 µM; EC50 (GABAA α2β3γ2s (α2)): 0.14 µM
NCCCC(=O)O [GABA] |  |  |  |  | quench of meYFP signal [1]: increasing quench of meYFP signal
COc1cc(/C=C(\C#N)C(=O)c2ccc(O)c(O)c2)cc(I)c1O [I—OMe Tyrphostin 538] | 3.5 µM | 2.2 µM | 1.5 µM |  | EC50 Values α5 (result in words) (GABAA α5β3γ2s (α5); [4]): Not active
CC(C)(C)c1cc(C=C(C#N)C#N)cc(C(C)(C)C)c1O [Tyrphostin A9] | 1.8 µM | 5 µM | 0.88 µM |  | EC50 (GABAA α5β3γ2s (α5); [4]): 54 µM
CC1=CC(=O)NS(=O)(=O)O1 [acesulfamek] |  |  |  | respond | 
COC(=O)[C@H](Cc1ccccc1)NC(=O)[C@@H](N)CC(=O)O [asparatame] (H-Asp-Phe-OMe) |  |  |  | respond | 
C=C1C[C@@]23CC[C@H]4[C@@](C)(CCC[C@@]4(C)C(=O)O[C@@H]4O[C@H](CO)[C@@H](O)[C@H](O)[C@H]4O)[C@@H]2CC[C@]1(O[C@@H]1O[C@H](CO)[C@@H](O)[C@H](O[C@@H]2O[C@H](CO)[C@@H](O)[C@H](O)[C@H]2O)[C@H]1O[C@@H]1O[C@H](CO)[C@@H](O)[C@H](O)[C@H]1O)C3 [rebaudioside A] |  |  |  | respond | 
O=C1NS(=O)(=O)c2ccccc21 [saccharin] |  |  |  | respond | 
OC[C@H]1O[C@@](CO)(O[C@H]2O[C@H](CO)[C@@H](O)[C@H](O)[C@H]2O)[C@@H](O)[C@@H]1O [sucrose] |  |  |  | respond | EC50 [3]: < 3500 µM
Ivermectin | 4.26 µM | 0.798 µM | 0.767 µM |  | EC50 (GABAA α5β3γ2s (α5); [4]): 0.687 µM
guanylin (peptide) |  |  |  |  | EC50 of guanylin dose-response (absorbance as a function of changes in cGMP levels) (human GC-C (human)): 0.0011 µM; level of cGMP (human GC-C (human)): 6 pmol/mL
mogroside |  |  |  | respond | 
